The values that follow come from paper PMC4552634, “A New Set of Chemical Starting Points with Plasmodium falciparum Transmission-Blocking Potential for Antimalarial Drug Discovery” (PLoS ONE, 2015).

The inhibition is the drop in the measured response relative to a control, in per cent.

The first experiment concerns P. falciparum stage V gametocytes. Nature of the experiment: microbe, parasite or virus in culture. More on the design: BacTiter-Glo ATP luminescence viability of purified stage V gametocytes in 384-well plates, per cent inhibition versus DMSO. The note with it: Plasmodium falciparum, 48 h, read-out: % Inhibition.
Turning to `Cc1[nH]cnc1CSCCNC(N)=NCCCCCCCCN=C(N)NCCSCc1nc[nH]c1C` [TCMDC-142301], the inhibition at 5 µM is -5.19%.

With `Nc1c2c(nc3ccc(NC(=O)c4ccc([N+](=O)[O-])cc4)cc13)CCCC2` [TCMDC-142291], the inhibition at 5 µM came to 60.6%.

For `CCCN(CCC)CCCOc1ccc(C(=O)c2c(-c3ccc(OCCCN(CCC)CCC)cc3)oc3ccc(Cl)cc23)cc1` [TCMDC-142256], the inhibition at 5 µM is 105%.

Regarding `COc1ccc2c(NN=C(C)c3ccccn3)cc(C)nc2c1` [TCMDC-142239], the inhibition at 5 µM was 103%.

As to `CCCCNC(c1ccc(Cl)cc1)C(O)c1ccc(Cl)cc1` (stereo not drawn) [TCMDC-142227], the inhibition at 5 µM is -29.7%.

In the case of `NC(=NCc1ccccc1)Nc1nc(-c2ccc(OCCCn3ccnc3)cc2)cs1` [TCMDC-142335], the inhibition at 5 µM was determined as 8.33%.

For the molecule `Cc1cc(NN=Cc2cccc(F)c2)c2cc(F)ccc2n1` [TCMDC-142173], the inhibition at 5 µM is -60.6%.

Take `COc1cc(C=NNc2cc(C)nc3c(OC)cccc23)cc(OC)c1OC` [TCMDC-142200]: the inhibition at 5 µM was 84.3%.

For `CCN(Cc1ccccc1)CC(O)c1ccc(Cl)c(Cl)c1` (stereo not drawn) [TCMDC-142226], the inhibition at 5 µM is 14.8%.

As to `CC(C)OC(=O)c1ccccc1S(N)(=O)=O` [TCMDC-142262], the inhibition at 5 µM is -12.6%.

Regarding `Cc1cc2nc(-c3cc(Br)ccc3O)c(-c3cc(Br)ccc3O)nc2cc1C` [TCMDC-142220], the inhibition at 5 µM stood at 24.2%.

As for `CCCNc1nc(Nc2ccccc2C)nc2ccccc12` [TCMDC-142326], the inhibition at 5 µM came out at 78.9%.

For the molecule `Cc1ccccc1Nc1nc(Nc2ccccc2)c2ccccc2n1` [TCMDC-142324], the inhibition at 5 µM turned out to be 28.6%.

With `CCOC(=O)c1cnc2c(OC)cc(OC)c(Cl)c2c1Nc1cccc(C)c1` [TCMDC-142241], the inhibition at 5 µM was -99.9%.

On to `COc1cccc2c(N/N=C/c3ccccc3[N+](=O)[O-])ccnc12` [TCMDC-142141], for which the inhibition at 5 µM is 90.8%.

For the molecule `COc1ccc2nccc(NN=Cc3ccccc3[N+](=O)[O-])c2c1` [TCMDC-142136], the inhibition at 5 µM came out at 27.9%.

Take `c1ccc2c3c(ccc2c1)Sc1c(ccc2ccccc12)N3` [TCMDC-142267]: the inhibition at 5 µM is -92.1%.

In the case of `COc1ccc2nccc(NN=Cc3ccc(N(C)C)cc3)c2c1` [TCMDC-142145], the inhibition at 5 µM is -119%.

With `CCOc1ccc2c(NN=Cc3cccc(F)c3)cc(C)nc2c1` [TCMDC-142194], the inhibition at 5 µM was -6.63%.

For the molecule `CCOC(=O)c1cnc2c(OC)cc(OC)c(Cl)c2c1Nc1cccc(C)c1C` [TCMDC-142242], the inhibition at 5 µM stood at 64.1%.

With `COc1ccc2c(NN=Cc3ccccc3F)cc(C)nc2c1` [TCMDC-142118], the inhibition at 5 µM was -19.6%.

On to `Cc1cc(F)ccc1Nc1nc(N(C)c2ccccc2)c2cccc(OCCO)c2n1` [TCMDC-142334], for which the inhibition at 5 µM was determined as 32.7%.

On to `[O-][s+]1nc(NCCCN(Cc2cccs2)c2ccccn2)c(NCc2ccccc2)n1` (stereo not drawn) [TCMDC-142312], for which the inhibition at 5 µM came to 5.1%.

For `CCCCCCCCNCC(O)c1cc(-c2ccc(Cl)cc2)nc2cc(C)ccc12` (stereo not drawn) [TCMDC-142223], the inhibition at 5 µM is -7.88%.

`C=CCN1Cc2c(O)cccc2C(c2ccc(O)c(O)c2)C1` (stereo not drawn) [TCMDC-142270]: the inhibition at 5 µM is -127%.

On to `Cc1cc(NN=Cc2ccc(Cl)cc2)c2ccc(F)cc2n1` [TCMDC-142160], for which the inhibition at 5 µM was -41.4%.

As for `COc1ccc2c(N/N=C/c3cccc([N+](=O)[O-])c3)ccnc2c1` [TCMDC-142138], the inhibition at 5 µM came to 79.5%.

Turning to `COc1ccc(C=NNc2cc(C)nc3ccccc23)c(OC)c1` [TCMDC-142196], the inhibition at 5 µM stood at 98.4%.

In the case of `COc1ccc2nccc(NN=CC=Cc3ccccc3)c2c1` [TCMDC-142143], the inhibition at 5 µM turned out to be 39%.

For `Cc1ccc(Cc2cnc(NCCSCc3ccc(CN(C)C)s3)[nH]c2=O)cn1` [TCMDC-142304], the inhibition at 5 µM was -3.6%.

As to `COc1ccc2c(NN=CC=Cc3ccccc3)ccnc2c1` [TCMDC-142144], the inhibition at 5 µM was -5.92%.

As to `COc1ccc(C=NNc2ccnc3ccccc23)c2ccccc12` [TCMDC-142215], the inhibition at 5 µM was -96.9%.

Consider `COc1ccc(C=NNc2cc(C)nc3ccccc23)c2ccccc12` [TCMDC-142185], for which the inhibition at 5 µM came to 93.9%.

As for `CCCCOP(=O)(OCCCC)C(=Cc1ccc(O)c2ccccc12)P(=O)(OCCCC)OCCCC` [TCMDC-142336], the inhibition at 5 µM was -25.7%.

For `CC1(C)N=C(N)N=C(N)N1c1ccc(Cl)c(Cl)c1` [TCMDC-142180], the inhibition at 5 µM is 61.6%.

Regarding `CCCCN(CCCC)Cc1cc(Nc2ccnc3cc(Cl)ccc23)ccc1O` [TCMDC-142279], the inhibition at 5 µM is -8.89%.

For the molecule `O=C(OCc1ccccn1)c1nc2ccccc2[nH]1` [TCMDC-142313], the inhibition at 5 µM turned out to be 43.6%.

As to `Fc1ccc2nccc(NN=CC=Cc3ccccc3)c2c1` [TCMDC-142123], the inhibition at 5 µM was -73.4%.

`FC(F)(F)c1ccc2nccc(NN=Cc3cccc(Cl)c3)c2c1` [TCMDC-142148]: the inhibition at 5 µM is 56%.

With `CCN(CC)Cc1cc(NC(=O)c2ccccc2O)ccc1Oc1ccc(Cl)cc1` [TCMDC-142283], the inhibition at 5 µM is -6.19%.

Take `CCN(CC)CCCC(C)Nc1c(-c2ccc(Br)cc2)cnc2ccccc12` (stereo not drawn) [TCMDC-142263]: the inhibition at 5 µM was found to be 26%.

Regarding `Cc1cc(NN=CC=Cc2ccccc2)c2ccc(F)cc2n1` [TCMDC-142176], the inhibition at 5 µM was -23.9%.

As for `Oc1ccc(Cc2cc(Oc3c(I)cc(CCc4ncc[nH]4)cc3I)ccc2O)cc1` [TCMDC-142306], the inhibition at 5 µM worked out at 59.2%.

Consider `c1cc(CN2CCCCC2)cc(OCCCNc2ccnc3ccccc23)c1` [TCMDC-142315], for which the inhibition at 5 µM was 42%.

Take `Cc1cc(NN=Cc2ccccc2)c2cc(F)ccc2n1` [TCMDC-142175]: the inhibition at 5 µM was -16.9%.

For `Cc1cc(NN=Cc2ccccc2Cl)c2cc(C(F)(F)F)ccc2n1` [TCMDC-142154], the inhibition at 5 µM was -77.2%.

For `CC(C)(C)c1cc([N+](=O)[O-])cc(C(=O)Nc2ccccc2C(F)(F)F)c1O` [TCMDC-142293], the inhibition at 5 µM was -4.47%.

Regarding `Nc1c2c(nc3ccc(C(=O)Nc4cc(I)c(O)c(I)c4)cc13)CCCC2` [TCMDC-142292], the inhibition at 5 µM is -1.08%.

As to `O=[N+]([O-])c1cccc(/C=N/Nc2ccnc3ccc(C(F)(F)F)cc23)c1` [TCMDC-142150], the inhibition at 5 µM is 7.31%.

In the case of `CCNc1c2ccc(Cl)cc2nc2ccc(OC)cc12` [TCMDC-142190], the inhibition at 5 µM is -21.5%.

Take `COc1cccc2c(N/N=C/c3cccc([N+](=O)[O-])c3)ccnc12` [TCMDC-142142]: the inhibition at 5 µM is -28.6%.

Take `Cc1[nH]cnc1CSCCN/C(=N\C#N)NCCCCCCCCN/C(=N/C#N)NCCSCc1nc[nH]c1C` [TCMDC-142302]: the inhibition at 5 µM was determined as 48.1%.

With `CCCCCC(C)C(C)c1cc(O)c2c3c(c(=O)oc2c1)CN(Cc1ccccc1)CC3` (stereo not drawn) [TCMDC-142182], the inhibition at 5 µM amounted to 75.7%.

Take `Cc1cc(N/N=C/c2ccccc2[N+](=O)[O-])c2cc(C(F)(F)F)ccc2n1` [TCMDC-142157]: the inhibition at 5 µM came out at 4.83%.

`CC1(C)N=C(N)N=C(N)N1c1ccc2ccccc2c1` [TCMDC-142179]: the inhibition at 5 µM was -17.5%.

For the molecule `COc1ccc(C=NNc2cc(C)nc3c(C)cccc23)c2ccccc12` [TCMDC-142216], the inhibition at 5 µM was -26.1%.

Regarding `COc1ccc2nccc(NN=Cc3ccc(F)cc3)c2c1` [TCMDC-142132], the inhibition at 5 µM amounted to 32.1%.

As to `CCOc1ccc2c(N/N=C/c3cccc([N+](=O)[O-])c3)cc(C)nc2c1` [TCMDC-142195], the inhibition at 5 µM is 115%.

As for `COc1cccc(C=NNc2cc(C)nc3c(OC)cccc23)c1` [TCMDC-142197], the inhibition at 5 µM amounted to 92.7%.

`CCn1c2ccccc2c2cc(C=NNc3cc(C)nc4ccccc34)ccc21` [TCMDC-142186]: the inhibition at 5 µM came out at 85.3%.

Consider `CCOC(=O)c1cnc2c(OC)cc(OC)c(Cl)c2c1Nc1ccccc1` [TCMDC-142240], for which the inhibition at 5 µM is 44.8%.

As to `Cc1ccc(O)cc1C[C@@H]1C(=O)CC[C@@]2(C)[C@H]1CC[C@]2(C)O` [TCMDC-142266], the inhibition at 5 µM was -40.3%.

For `COc1ccc2ccccc2c1C=NNc1cc(C)nc2c(C)cccc12` [TCMDC-142234], the inhibition at 5 µM came to 35.2%.

For the molecule `COc1ccc2ccccc2c1C=NNc1ccnc2ccc(F)cc12` [TCMDC-142237], the inhibition at 5 µM is -11.1%.

With `COc1ccc2nccc(NN=Cc3ccc([N+](=O)[O-])cc3)c2c1` [TCMDC-142139], the inhibition at 5 µM is -3.02%.

In the case of `CCCCCNc1nc(Nc2ccccc2C)nc2ccccc12` [TCMDC-142328], the inhibition at 5 µM was 26.7%.

For the molecule `COc1ccc(C=NNc2cc(C)nc3ccccc23)cc1OC` [TCMDC-142184], the inhibition at 5 µM was -5.19%.

In the case of `Nc1c2c(nc3ccc(Oc4ccc(Br)cc4Br)cc13)CCCC2` [TCMDC-142286], the inhibition at 5 µM came to 91.6%.

With `CCN(CC)CC(O)c1cc(-c2ccc(C)cc2)nc2c(C)cc(C)cc12` (stereo not drawn) [TCMDC-142229], the inhibition at 5 µM was -117%.

As for `Cc1ccccc1Nc1nc(NCCCO)c2ccccc2n1` [TCMDC-142327], the inhibition at 5 µM came out at 41.9%.

For the molecule `Cc1cc(NN=Cc2ccccc2Cl)c2cc(F)ccc2n1` [TCMDC-142165], the inhibition at 5 µM is -39.2%.

As to `COc1ccccc1CNc1nc(Nc2ccccc2C)nc2ccccc12` [TCMDC-142330], the inhibition at 5 µM was 93.6%.

Turning to `Cc1cc(Br)cnc1CCCCNc1cc(=O)c2ccccc2[nH]1` [TCMDC-142316], the inhibition at 5 µM was -5.57%.

As to `CN(C)c1ccc(C=Cc2ccc3ccccc3n2)c(Cl)c1` [TCMDC-142212], the inhibition at 5 µM stood at 36.3%.

For the molecule `CC(C)NCc1cc(Nc2ccnc3cc(Cl)ccc23)ccc1O` [TCMDC-142277], the inhibition at 5 µM is -61.6%.

Still in this experiment, the particulars now being: Plasmodium falciparum, 48 h; read-out: % Inhibition.
With `CCCCCc1cc(O)c2c(c1)OC(C)(C)c1ccncc1-2` [TCMDC-142255], the inhibition at 5 µM is -24.7%.

As to `CCCCCCC(C)(C)c1cc(O)c2c3c(c(=O)oc2c1)CCN(Cc1ccccc1)C3` [TCMDC-142252], the inhibition at 5 µM was -7.75%.

With `CCCCCC(C)C(C)c1cc(O)c2c(c1)OC1(C(C)C)CC(O)C(C)C2C1` (stereo not drawn) [TCMDC-142232], the inhibition at 5 µM came to 44.6%.
